Experiment [1] relates to Mycobacterium tuberculosis. Nature of the experiment: Compounds were evaluated for the minimum inhibitory concentration (MIC) Mycobacterium tuberculosis H 37 Rv (thiosemicarbazone resistant). In kind it is functional.
Experiment [2] deals with Mycobacterium tuberculosis. Nature of the experiment: Compounds were evaluated for the minimum inhibitory concentration (MIC) Mycobacterium tuberculosis H 37 Rv (INH resistant). It is filed as functional.

Each structure is given as a SMILES string.

Take `CCCCNCc1cccc(F)c1.Cl`: the minimal inhibitory concentration (MIC) was 32 µg/mL in experiment [1] and 8 µg/mL in experiment [2].

As a reminder, the MIC is the smallest concentration in the dilution series that meets the test's criterion for growth inhibition. The low end stands for greater potency, the high end for weaker potency.

Source of the values: ChEMBL document CHEMBL1122718, “Benzylamines: synthesis and evaluation of antimycobacterial properties” (1984).
